A short description of data set [1]: Cytotoxicity evaluation in GS4.1 cells (Cell Titer 96 AQueous One Solution). It is filed as cell-based. Particulars: human; for CC50: 72 hours. The procedure:
(§1) Huh-7 cells containing HCV Conl subgenomic replicon (GS4.1 cells), (C. Seeger; Fox Chase University, Philadelphia, Pa., USA), are grown in Dulbecco's Modified Eagle Medium (DMEM) supplemented with 10% fetal bovine serum (FBS), 2 mM L-glutamine, 110 mg/L sodium pyruvate, 1×non-essential amino acids, 100 U/mL penicillin-streptomycin and 0.5 mg/mL G418 (Invitrogen). For dose-response testing, the cells are seeded in 96-well plates at 7.5×10^3 cells/well in a volume of 50 μL and incubated at 37° C./5% CO2. Three hours after plating, 50 μL of ten 2-fold serial dilutions of compounds (highest concentration, 75 μM) are added and cell cultures were incubated at 37° C./5% CO2 in the presence of 0.5% DMSO. Alternatively, compounds are tested at a single concentration of 15 μM. In all cases, Huh-7 cells lacking the HCV replicon served as negative control. The cells are incubated in the presence of compounds for 72 hours after which they were monitored for expression of the NS4A protein by enzyme-linked immunosorbent assay (ELISA). For this, the plates were then fixed for 1 min with 1:1 acetone:methanol, washed twice with phosphate-buffered saline (PBS), 0.1% Tween 20, blocked for 1 hour at room temperature with TNE buffer containing 10% FBS and then incubated for 2 h at 37° C. with the anti-NS4A mouse monoclonal antibody A-236 (ViroGen) diluted in the same buffer. After washing three times with PBS, 0.1% Tween 20, the cells are incubated 1 hour at 37° C. with anti-mouse immunoglobulin G-peroxidase conjugate in TNE, 10% FBS. After washing as described above, the reaction is developed with O-phenylenediamine (Zymed). The reaction is stopped after 30 minutes with […] and the absorbance is read at 492 nm using a Sunrise Tecan spectrophotometer. EC50 values are determined from the % inhibition versus concentration data using a sigmoidal non-linear regression analysis based on four parameters with Tecan Magellan software. […] For cytotoxicity evaluation, GS4.1 cells are treated with compounds as described above and cellular viability was monitored using a Cell Titer 96 AQueous One Solution Cell Proliferation Assay (Promega). CC50 values are determined from the % cytotoxicity versus concentration data with Tecan Magellan software as described above.

Data set [2] concerns HCV Conl subgenomic replicon (GS4.1 cells). Kind of data set: HCV replicon assay (NS4A ELISA, HCV ELISA 2). It counts as cell-based. Particulars: Hepatitis C virus. The procedure: as §1
In general terms: Replicon systems follow genome replication, usually without infectious particles.

Setting [3] is: GS4.1 cells, 72 hours, NS4A ELISA, read-out: HCV ELISA 2 EC50.
[4] abbreviates: 72 h, read-out: HCV ELISA 2 EC50 (μM).

Results on 24 compounds are retold here after patent US7951789B2 (priority 2006, dated 2011).

Where two headings read alike, the source gives them in different places.

Usually CC50 stands for the concentration that lowers cell viability or growth by half. Broadly, the EC50 is the concentration at which the effect is half-maximal. Regarding `CC(C)(CO)C(=O)SCCOP(=O)(NCc1ccccc1)OC[C@H]1O[C@@H](n2cnc3c(=O)[nH]cnc32)[C@](C)(O)[C@@H]1O` (mixture of isomers) [Example B186, Hydroxy-tBuSATE N-benzylphosphoramidate Derivative of 2′-C-methylinosine], in data set [1], the CC50 was > 75 µM. Further, the EC50 in data set [2] (setting [3]) was 1 to 10 µM.

Turning to `CCCCN(CCCC)P(=O)(OCCSC(=O)C(C)(C)CO)OC[C@H]1O[C@@H](n2ccc(N)nc2=O)[C@](C)(O)[C@@H]1O` (mixture of isomers) [Example B244, Hydroxy-tBuSATE N,N-(dibutylamine)phosphoramidate Derivative of 2′-C-methylcytidine], in data set [1], the CC50 at 72 h was > 75 µM. In addition, the EC50 in data set [2] (setting [4]) is > 10 µM.

As for `CC(C)(CO)C(=O)SCCOP(=O)(NCc1ccccc1)OC[C@H]1O[C@@H](n2cnc3c(N)ncnc32)[C@](C)(O)[C@@H]1O` (mixture of isomers) [Example B263, Hydroxy-tBuSATE N-benzylphosphoramidate Derivative of 2′-C-methyladenosine], the CC50 in data set [1] was > 75 µM. Besides, in data set [2] (setting [3]), the 50% effective concentration (EC50) lay in the range of 1 to 10 µM.

In the case of `CC(C)(CO)C(=O)SCCOP(=O)(NCc1ccccc1)OC[C@H]1O[C@@H](n2cnc3c(=O)[nH]c(N)nc32)[C@](C)(O)[C@@H]1O` (mixture of isomers) [Example B299, Hydroxy-tBuSATE N-benzylphosphoramidate Derivative of 2′-C-methylguanosine], the CC50 in data set [1] is > 75 µM. Also, the EC50 in data set [2] (setting [3]) was < 1 µM.

Take `CN(Cc1ccccc1)P(=O)(OCCSC(=O)C(C)(C)CO)OC[C@H]1O[C@@H](n2ccc(N)nc2=O)[C@](C)(O)[C@@H]1O` (mixture of isomers) [Example B308, Hydroxy-tBuSATE N-methylbenzylphosphosphoramidate Derivative of 2′-C-methyl-cytidine]: the CC50 at 72 h in data set [1] is > 75 µM. In data set [2] (setting [4]), the EC50 is 1 to 10 µM.

Regarding `CC(C)(CO)C(=O)SCCOP(=O)(OC[C@H]1O[C@@H](n2ccc(N)nc2=O)[C@](C)(O)[C@@H]1O)N1CCCCC1` (mixture of isomers) [Example B353, Hydroxy-tBuSATE N-piperidinephosphosphoramidate Derivative of 2′-C-methyl-cytidine], the CC50 at 72 h in data set [1] was > 75 µM. Also, the EC50 in data set [2] (setting [4]) was > 10 µM.

As for `CC(C)(CO)C(=O)SCCOP(=O)(OC[C@H]1O[C@@H](n2ccc(N)nc2=O)[C@](C)(O)[C@@H]1O)N1CCOCC1` (mixture of isomers) [Example B391, Hydroxy-tBuSATE N-morpholinophosphosphoramidate Derivative of 2′-C-methylcytidine], the CC50 at 72 h in data set [1] was > 75 µM. In data set [2] (setting [4]), the EC50 is > 10 µM.

As for `CC(C)(CO)C(=O)SCCOP(=O)(OC[C@H]1O[C@@H](n2ccc(N)nc2=O)[C@](C)(O)[C@@H]1O)N1CCCC1` (mixture of isomers) [Example B395, Hydroxy-tBuSATE N-pyrrolidinephosphosphoramidate Derivative of 2′-C-methylcytidine], in data set [1], the cytotoxic concentration (CC50) at 72 h was > 75 µM. For the same compound, the EC50 in data set [2] (setting [4]) was 1 to 10 µM.

Take `CC(C)(CO)C(=O)SCCOP(=O)(NCc1ccccc1)OC[C@H]1O[C@@H](n2cc(F)c3c(N)ncnc32)[C@](C)(O)[C@@H]1O` (mixture of isomers) [Example B436, Hydroxy-tBuSATE N-benzylphosphoramidate Derivative of 2′-C-methyl-7-deaza-7-fluoro-adenosine]: the CC50 in data set [1] is > 75 µM. In data set [2] (setting [3]), the EC50 lay in the range of 1 to 10 µM.

As to `CC(=O)Nc1ccn([C@@H]2O[C@H](COP(=O)(NCc3ccccc3)OCCSC(=O)C(C)(C)CO)[C@@H](O)[C@@]2(C)O)c(=O)n1` (stereo in doubt) [Example B183, Hydroxy-tBuSATE N-benzylphosphoramidate Derivative of 2′-C-methyl-NH-4-acetyl-cytidine], the CC50 in data set [1] was > 75 µM. Further, the EC50 in data set [2] (setting [3]) is > 10 µM.

With `CC(C)(CO)C(=O)SCCOP(=O)(NCc1ccccc1C(F)(F)F)OC[C@H]1O[C@@H](n2ccc(N)nc2=O)[C@](C)(O)[C@@H]1O` (stereo in doubt) [Example B187, Hydroxy-tBuSATE N-(2-(trifluoromethyl)benzyl)phosphosphoramidate Derivative of 2′-C-methylcytidine], the CC50 in data set [1] is > 75 µM. In addition, the EC50 in data set [2] (setting [3]) is 1 to 10 µM.

In the case of `CCCCCCCCN(C)P(=O)(OCCSC(=O)C(C)(C)CO)OC[C@H]1O[C@@H](n2ccc(N)nc2=O)[C@](C)(O)[C@@H]1O` (stereo in doubt) [Example B204, Hydroxy-tBuSATE N-(n-methyl-n-octyl-amine)phosphosphoramidate Derivative of 2′-C-methylcytidine], the 50% cytotoxic concentration (CC50) at 72 h in data set [1] was > 75 µM. For the same compound, in data set [2] (setting [4]), the EC50 lay in the range of 1 to 10 µM.

For `CC(C)(CO)C(=O)SCCOP(=O)(NCc1ccc(C(F)(F)F)cc1)OC[C@H]1O[C@@H](n2cnc3c(=O)[nH]c(N)nc32)[C@](C)(O)[C@@H]1O` (stereo in doubt) [Example B242, O-(Hydroxy-tert-butyl-S-acyl-2-thioethyl)-2′-C-methylguanosin-5′-yl-N-(4-trifluoromethyl)-benzylaminyl Phosphate], the half-maximal cytotoxic concentration (CC50) in data set [1] is > 75 µM. The EC50 in data set [2] (setting [3]) was < 1 µM.

With `CC(C)(CO)C(=O)SCCOP(=O)(NCc1ccccc1)OC[C@H]1O[C@@H](n2cnc3c(=O)[nH]c(N)nc32)[C@]2(C)OC(=O)O[C@H]12` (stereo in doubt) [Example B307, N-Benzylaminyl-O-(hydroxy-tert-butyl-S-acyl-2-thioethyl)-2′,3′-O-carbonate-2′-C-methylguanosin-5′-yl phosphate], the CC50 in data set [1] was > 75 µM. The EC50 in data set [2] (setting [3]) was < 1 µM.

Regarding `CC(C)(CO)C(=O)SCCOP(=O)(NC1CCCCC1)OC[C@H]1O[C@@H](n2ccc(N)nc2=O)[C@](C)(O)[C@@H]1O` (stereo in doubt) [Example B354, Hydroxy-tBuSATE N-cyclohexylaminephosphosphoramidate Derivative of 2′-C-methyl-cytidine], the CC50 in data set [1] was > 75 µM. For the same compound, the EC50 in data set [2] (setting [3]) was 1 to 10 µM.

Consider `CC(=O)O[C@@H]1[C@@H](COP(=O)(NCc2ccccc2)OCCSC(=O)C(C)(C)CO)O[C@@H](n2ccc(N)nc2=O)[C@]1(C)OC(C)=O` (stereo in doubt) [Example B390, Hydroxy-tBuSATE N-benzylphosphoramidate Derivative of 2′-C-methyl-2′,3′-di-O-acetyl-cytidine], for which, in data set [1], the CC50 was > 75 µM. Also, in data set [2] (setting [3]), the EC50 is > 10 µM.

For the compound `CC(C)(CO)C(=O)SCCOP(=O)(NCc1ccc(C(F)(F)F)cc1)OC[C@H]1O[C@@H](n2ccc(N)nc2=O)[C@](C)(O)[C@@H]1O` (stereo in doubt) [Example B399, Hydroxy-tBuSATE N-(4-(trifluoromethyl)benzyl)phosphosphoramidate Derivative of 2′-C-methylcytidine], the half-maximal cytotoxic concentration (CC50) in data set [1] was > 75 µM. Moreover, in data set [2] (setting [3]), the EC50 lay in the range of 1 to 10 µM.

Regarding `C#C[C@@]1(F)[C@H](O)[C@@H](COP(=O)(NCc2ccccc2)OCCSC(=O)C(C)(C)CO)O[C@H]1n1cnc2c(=O)[nH]c(N)nc21` (stereo in doubt) [Example B503, N-Benzylaminyl-{9-[(2R)2-deoxy-2-fluoro-2-C-ethynyl-β-D-erythro-furanosyl]-guanin}-5′-yl-O-(hydroxy-tert-butyl-S-acyl-2-thioethyl) Phosphate], the CC50 in data set [1] is > 75 µM. Moreover, in data set [2] (setting [3]), the EC50 is 1 to 10 µM.

For the compound `C[C@@]1(O)[C@H](O)[C@@H](CO)O[C@H]1n1cnc2c(N)ncnc21` [A374 (NM80), 2′-C-methyladenosine, reference compound], in data set [1], the CC50 is ≤ 75 µM. The EC50 in data set [2] (setting [3]) is < 1 µM.

Take `C[C@@]1(O)[C@H](O)[C@@H](CO)O[C@H]1n1ccc(N)nc1=O` [A634 (NM107), 2′methyl cytidine, reference compound]: the CC50 in data set [1] was > 75 µM. The EC50 in data set [2] (setting [3]) lay in the range of 1 to 10 µM.

For `C[C@@]1(O)[C@H](O)[C@@H](CO)O[C@H]1n1cnc2c(=O)[nH]c(N)nc21` [A844 (NM 108), 2′-C-methylguanosine, reference compound], in data set [1], the CC50 is > 75 µM. Moreover, the EC50 in data set [2] (setting [3]) lay in the range of 1 to 10 µM.

In the case of `C[C@@]1(O)[C@H](O)[C@@H](CO)O[C@H]1n1ccc(=O)[nH]c1=O` [C809 (NM106), 2′-C-methyluridine, reference compound], the CC50 in data set [1] was > 75 µM. The EC50 in data set [2] (setting [3]) was > 10 µM.

On to `C[C@@]1(O)[C@H](O)[C@@H](CO)O[C@H]1n1cnc2c(=O)[nH]cnc21` [Example A608, 2′-C-methylinosine, reference compound], for which the CC50 in data set [1] was > 75 µM. The EC50 in data set [2] (setting [3]) is > 10 µM.

Turning to `C[C@@]1(O)[C@H](O)[C@@H](CO)O[C@H]1n1cnc2c(Cl)ncnc21` [Example A849, 9-[2-C-methyl-β-ribofuranosyl]-6-chloropurine, reference compound], the CC50 in data set [1] was > 75 µM. Further, the EC50 in data set [2] (setting [3]) is < 1 µM.
